Source: patent US11191744B2, “Pharmaceutical active ingredient and use thereof, in particular for the prevention and treatment of metabolic disorders in humans and animals” (VALBIOTIS, priority 2017, dated 2021)
“And” between values parts separate entries of the source, which are not always exact repeats. Equal values may be shown once.

Key:
Type in all cases: in vivo
[1] = test system: db/db mice; experiment: Fasting glycemia in db/db mice after 6 weeks of treatment; details: for effect on fasting glycemia (in words): db/db mice, after 6 weeks of treatment, versus CONTROL; for Fasting glycemia after 6 weeks of treatment: male db/db mice, fasted 6 h, compositions in the diet, mean values ± SEM
Experimental: (§1) The composition was also compared to metformin, one of the main pharmaceutical molecules prescribed for the treatment of type 2 diabetes.
(§2) Experiments were performed on db/db mice, a model mimicking the characteristics of type 2 diabetes in humans (Roesler W J et al., Mol Cell Biochem 1990; 92(2):99-106). These mice are insulin-resistant, hypertriglyceridemic, and glucose intolerant. They very quickly develop pre-diabetes, a type 2 diabetes and then NASH.
(§3) The experimental time for the trial was […] with a 1 week run-in followed by 6 weeks of treatment. The male mice were 6 weeks old at the start of treatment. The (1S,3R,4R,5R)-3-{[(2E)-3-(3,4-dihydroxyphenyl)-2-propenoyl]oxy}-1,4,5-trihydroxycyclohexanecarboxylic acid alone, the methyl (2S,3E,4S)-4-{2-[2-(3,4-dihydroxyphenyl)ethoxy]-2-oxoethyl}-3-ethylidene-2-(β-D-glucopyranosyloxy)-3,4-dihydro-2H-pyran-5-carboxylate alone, and the mixture of these two molecules in a ratio of 1/4.65 have been tested and compared with metformin. These compositions were directly integrated into the diet of rodents, thus ensuring large-scale use, with injections, for example, intravenous, being limited to a small number given their mode of administration.
(§4) After randomization by weight and fasting glycemia, the animals were divided into the following groups: • Control (n=15): CONTROL; • Metformin (n=12, 0.2% of the diet): MET; • (1S,3R,4R,5R)-3-{[(2E)-3-(3,4-dihydroxyphenyl)-2-propenoyl]oxy}-1,4,5-trihydroxycyclohexanecarboxylic acid (n=12, 0.026% of the diet): V63X35; • The methyl (2S,3E,4S)-4-{2-[2-(3,4-dihydroxyphenyl)ethoxy]-2-oxoethyl}-3-ethylidene-2-(β-D-glucopyranosyloxy)-3,4-dihydro-2H-pyran-5-carboxylate (n=11, 0.12% of diet): V63X54; • The (1S,3R,4R,5R)-3-{[(2E)-3-(3,4-dihydroxyphenyl)-2-propenoyl]oxy}-1,4,5-trihydroxycyclohexanecarboxylic acid+methyl (2S,3E,4S)-4-{2-[2-(3,4-dihydroxyphenyl)ethoxy]-2-oxoethyl}-3-ethylidene-2-(β-D-glucopyranosyloxy)-3,4-dihydro-2H-pyran-5-carboxylate (n=11, respectively 0.026% and 0.12% of the feed): V63,000.
(§5) Experimental evaluations performed on an empty stomach (6 h) after 6 weeks of treatment were in particular concerned with: • The measurement of weight; • Measuring glycemia; • Measuring of insulinemia; • Measuring of serum triglycerides.
The synergistic effect on fasting glycemia was evaluated according to the Colby SR method described in “Calculation of the synergistic and antagonistic responses of herbicide combinations” Weeds, 1967, 15:20-22. A factor>1 indicates the existence of a synergistic effect. A factor<1 indicates the existence of an antagonist.
V63X54 represents the percent change in glycemia for the V63X54 group compared to the CONTROL group.

[2] = test system: db/db mice; experiment: Fasting insulinemia in db/db mice after 6 weeks of treatment; details: for Median values of insulinemia after 6 weeks of treatment: male db/db mice, fasted 6 h, compositions in the diet; for median insulinemia compared with CONTROL (in words): db/db mice, after 6 weeks of treatment
Experimental: as §1, §2
FIG. 1 illustrates the evolution of insulinemia and glycemia (glucose) over time in this model (Joost H G et al., Animal Models in Diabetes Research, Humana Press). As for humans, the rise in glycemia is initially accompanied by an increase in insulinemia (associated with insulin resistance), evidence of a pancreas still able to secrete insulin, then a decrease, reflecting functional degeneration of the pancreas, and thus progression of type 2 diabetes with the need for insulin therapy (Kobayashi K et al., Metabolism: Clinical and experimental 2,000; 49:22-31 Tao H et al Nat Med 2014; 20(11):1263-1269).
as §3, §4, §5

[3] = test system: db/db mice; experiment: Fasting serum triglycerides in db/db mice after 6 weeks of treatment
Experimental: as §1, §2
as §3, with “administration. […]” for “administration.”

Row | Structure (SMILES) | effect on fasting glycemia (in words) [1] | Fasting glycemia after 6 weeks of treatment [1] | Median values of insulinemia after 6 weeks of treatment [2] [ng/mL] | reduction of blood triglyceride levels ([3]; db/db mice, after 6 weeks of treatment, versus CONTROL) [%] | Serum triglycerides after 6 weeks of treatment ([3]; male db/db mice, fasted 6 h, compositions in the diet, mean values ± SEM) [mg/dL] | median insulinemia compared with CONTROL (in words) [2]
1 | CN(C)C(=N)N=C(N)N [MET, metformin, reference compound] | no effect | 454 mg/dL and 454 ± 34 mg/dL | 21.89 | 35.6 | 132.6 ± 7.4 | 
2 | O=C(/C=C/c1ccc(O)c(O)c1)O[C@@H]1C[C@](O)(C(=O)O)C[C@@H](O)[C@H]1O [V63X35, (1S,3R,4R,5R)-3-{[(2E)-3-(3,4-dihydroxyphenyl)-2-propenoyl]oxy}-1,4,5-trihydroxycyclohexanecarboxylic acid] | no effect | 454 ± 34 mg/dL | 22.39 |  |  | no difference
3 | C/C=C1/[C@H](O[C@@H]2O[C@H](CO)[C@@H](O)[C@H](O)[C@H]2O)OC=C(C(=O)OC)[C@H]1CC(=O)OCCc1ccc(O)c(O)c1 [V63X54, methyl (2S,3E,4S)-4-{2-[2-(3,4-dihydroxyphenyl)ethoxy]-2-oxoethyl}-3-ethylidene-2-(β-D-glucopyranosyloxy)-3,4-dihydro-2H-pyran-5-carboxylate] | no effect | 432 ± 27 mg/dL | 25.44 |  |  | no difference
